One assay relates to hT2R63. Put plainly: hT2R panel inhibition, transient HEK293 G16g44, agonist Caffeine 1 mM or Andrographolide 100 μM. The assay is classed as cell-based, human. The following applies: compound at 25 μM; for screening result against bitter receptor 63: receptor activated to EC80 with the corresponding agonist. The method, then: (§1) Specifically, in order to evaluate the inhibitory selectivity of the Compound C compound, this compound was tested against 22 human T2Rs which were deorphaned by Senomyx. These receptors and the bitter ligands that activate these human T2Rs are reported in earlier patent applications which are incorporated by reference herein. These 22 human T2Rs are hT2R1, 3, 4, 5, 7, 8, 9, 10, 13, 14, 16, 44, 51, 54, 55, 61, 63, 64, 65, 67, 71 and 75. The amino acid and nucleic acid sequences of all of these T2Rs may be found in these earlier patent applications. These human T2Rs were each individually transiently transfected into HEK293 cells that stably express the promiscuous G protein G16g44 and functional assays were effected using these receptors as disclosed in these same patent applications. […] The ligands were used at EC80 concentration levels. The list of bitter ligands utilized and the tested ligand concentrations are contained in Table 5 of this example.
(§2) Relating to the foregoing, FIG. 5 contains experimental results wherein Compound C was tested with different agonist compounds. The inhibition activity is represented by the reduction of receptor activity in the presence of Compound C. […] These 13 hT2Rs are hT2R3, 7, 10, 14, 16, 44, 51, 55, 61, 63, 64, 65, and 71.

A further assay concerns the target hT2R64 (Homo sapiens (Human), UniProt P59538). Put plainly: hT2R panel inhibition, transient HEK293 G16g44, agonist Aristolochic Acid 1 μM. The assay is classed as cell-based. The following applies: HEK293, compound at 25 μM. The method, then: as §1, §2
Another assay concerns the target hT2R61 (Homo sapiens (Human), UniProt P59537). Put plainly: hT2R panel inhibition, transient HEK293 G16g44, agonist Aristolochic Acid 25 nM. It is filed as cell-based. The following applies: HEK293, compound at 25 μM. The method, then: as §1, §2
The next assay addresses hT2R71 (Homo sapiens (Human), UniProt P59536). Description: hT2R panel inhibition, transient HEK293 G16g44, agonist Picric Acid 10 μM. The following applies: HEK293, compound at 25 μM; receptor activated to EC80 with the corresponding agonist; read-out: screening result against bitter receptor 71. The assay is classed as cell-based. The method, then: as §1, §2
Assay [1] deals with T1, hT2R14 (Homo sapiens (Human), UniProt Q9NYV8). Put plainly: hT2R14 antagonist high-throughput FLIPR assay, stable cell line with G16g44, agonist aristolochic acid. It is filed as cell-based. Here is the method:
The inventors also used the automated fluorimetric […] system FLIPR using a slightly different protocol. A HEK293 cell line stably expressing G16gust44 was transfected with a hT2R expression plasmid, 24 hours later, the cells are loaded and analyzed on FLIPR.
After a ligand is identified for a particular hT2R, a HEK293 cell line stably expressing both the hT2R and G16gust44 are generated, facilitating future screening assays to identify other ligands that activate the particular hT2R or which modulate (block or enhance) the activation of this hT2R by another bitter ligand such as a bitter compound contained in coffee. This avoids the need for transient transfection.
To identify antagonists, cell lines stably expressing hT2R8 and hT2R14, respectively, together with the promiscuous chimeric G16g44 protein were generated as described in previous patent applications. A high-throughput assay was established using the stable cell lines and FLIPR (Fluorescent Imaging Plate Reader). An agonist of hT2R8 or hT2R14 was used to activate the receptors up to 70-80% of their respective maximal activity. For hT2R8, the agonist used was andrographolide (200 […]); for hT2R14, it was aristolochic acid (3 μM). To identify antagonists, compounds with diverse chemical structures were added together with the agonist.

Assay [2] has as its target T1, hT2R14. Description: hT2R panel inhibition, transient HEK293 G16g44, agonist Aristolochic Acid 2 μM. The following applies: HEK293, compound at 25 μM; receptor activated to EC80 with agonist; read-out: inhibition of bitter receptor 14. It is filed as cell-based. The method, then:
as §1

The mark [3] stands for this setting: receptor activated to EC80 with the corresponding agonist, read-out: screening result against bitter receptor 64.
The mark [4] stands for this setting: receptor activated to EC80 with the corresponding agonist, read-out: screening result against bitter receptor 61.

Like-named read-outs stand apart in the source and are kept apart here. Where only a bound is given, the exact number is not on record here.

T1 sequence (Q9NYV8 whole entry): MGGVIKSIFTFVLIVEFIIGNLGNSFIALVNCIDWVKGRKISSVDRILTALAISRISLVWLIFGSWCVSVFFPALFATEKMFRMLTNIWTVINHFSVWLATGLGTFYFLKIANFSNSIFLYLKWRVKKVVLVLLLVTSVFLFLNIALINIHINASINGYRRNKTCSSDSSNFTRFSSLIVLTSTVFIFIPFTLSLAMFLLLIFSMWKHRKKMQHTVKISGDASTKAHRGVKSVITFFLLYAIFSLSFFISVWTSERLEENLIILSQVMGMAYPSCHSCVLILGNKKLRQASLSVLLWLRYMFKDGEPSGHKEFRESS
Sequence of hT2R61 (P59537 whole entry): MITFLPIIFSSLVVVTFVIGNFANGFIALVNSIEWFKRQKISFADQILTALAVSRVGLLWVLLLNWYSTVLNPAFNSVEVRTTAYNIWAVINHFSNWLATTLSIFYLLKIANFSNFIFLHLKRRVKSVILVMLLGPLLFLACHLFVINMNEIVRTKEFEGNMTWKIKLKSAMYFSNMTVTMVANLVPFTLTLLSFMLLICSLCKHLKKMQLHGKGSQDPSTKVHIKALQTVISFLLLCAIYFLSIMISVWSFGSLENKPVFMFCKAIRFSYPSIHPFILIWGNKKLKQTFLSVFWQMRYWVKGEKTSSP
Sequence of hT2R64 (P59538 whole entry): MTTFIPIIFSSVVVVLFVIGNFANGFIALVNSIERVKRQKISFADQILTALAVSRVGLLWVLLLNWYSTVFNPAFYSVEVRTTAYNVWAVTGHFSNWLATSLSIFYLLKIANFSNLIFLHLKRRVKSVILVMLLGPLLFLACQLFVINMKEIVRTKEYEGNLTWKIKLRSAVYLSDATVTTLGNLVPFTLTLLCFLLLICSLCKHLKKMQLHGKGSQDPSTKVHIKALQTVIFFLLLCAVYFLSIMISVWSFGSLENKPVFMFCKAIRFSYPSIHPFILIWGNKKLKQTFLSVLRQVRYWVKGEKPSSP
Sequence of hT2R71 (P59536 whole entry): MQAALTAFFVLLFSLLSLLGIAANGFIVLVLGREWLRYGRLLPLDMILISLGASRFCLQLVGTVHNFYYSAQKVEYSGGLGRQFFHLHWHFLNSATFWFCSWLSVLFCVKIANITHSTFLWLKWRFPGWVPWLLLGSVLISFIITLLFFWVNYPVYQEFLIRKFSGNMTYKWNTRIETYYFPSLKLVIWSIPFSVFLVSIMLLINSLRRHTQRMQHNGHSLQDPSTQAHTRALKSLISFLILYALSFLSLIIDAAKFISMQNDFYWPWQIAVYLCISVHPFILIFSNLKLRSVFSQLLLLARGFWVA

As to `COc1ccc(CN(C)S(=O)(=O)c2ccc(C(=O)O)cc2)cc1` [Example 5-29, 4-(N-(4-methoxybenzyl)-N-methylsulfamoyl)benzoic acid], the “screening result against bitter receptor 63” value (“screening result” for short) in the assay on hT2R63 is “+++ (60% to 80% inhibition = +++)”. For the same compound, the inhibition at 25 µM at hT2R64 (setting [3]) was in the range of 40 to 60%.
With `COc1ccc(CN(Cc2ccc(C(=O)O)cc2)S(=O)(=O)c2ccc(C(=O)O)cc2)cc1` [Example 5-38, 4-((4-carboxy-N-(4-methoxybenzyl)phenylsulfonamido)methyl)-benzoic acid], the inhibition at 25 µM at hT2R61 (setting [4]) is over 80%; at hT2R64 (setting [3]) it was 20 to 40%; on hT2R71, 20 to 40%. For the same compound, the “screening result” value in the assay with hT2R63 is recorded as “++++ (80% or greater inhibition = ++++)”.
In the case of `COc1ccc(CN(Cc2ccccc2)S(=O)(=O)c2ccccc2C(=O)O)cc1` [Example 5-60, 2-(N-benzyl-N-(4-methoxybenzyl)sulfamoyl)benzoic acid], the inhibition at 25 µM at hT2R64 (setting [3]) lay in the range of 20 to 40%.
Turning to `COc1ccc(CN(Cc2cccc(C(=O)O)c2)S(=O)(=O)c2ccc(C(=O)O)cc2)cc1` [Example 5-82, 3-((4-carboxy-N-(4-methoxybenzyl)phenylsulfonamido)methyl) benzoic acid], the inhibition at 25 µM on hT2R61 (setting [4]) is over 80%; on hT2R64 (setting [3]), 20 to 40%; at hT2R71 it was 20 to 40%. Further, the “screening result” value with hT2R63 is on record as “++++ (80% or greater inhibition = ++++)”.
As a reminder, the IC50 is the concentration that gives 50% inhibition. As for `COc1ccc(C2Cc3ccccc3CN2S(=O)(=O)c2ccc(C(=O)O)cc2)cc1` (stereo not shown) [Example 5-161, 4-(3-(4-methoxyphenyl)-3,4-dihydroisoquinolin-2(1H)-ylsulfonyl)benzoic acid], on hT2R14 [1] (Table C, read-out: hT2R14 IC50), the IC50 came to 6.27 µM.
In the case of `COc1ccc2c(c1)CCN(S(=O)(=O)c1ccc(C(=O)O)cc1)C2c1ccccc1` (stereo not shown) [Example 5-162, 4-(6-methoxy-1-phenyl-3,4-dihydroisoquinolin-2(1H)-ylsulfonyl)benzoic acid], on hT2R14 [1] (Table C, read-out: hT2R14 IC50), the IC50 came out at 9.62 µM.
For the compound `COc1ccc2c(c1)C(c1ccccc1)N(S(=O)(=O)c1ccc(C(=O)O)cc1)CC2` (stereo not shown) [Example 5-163, 4-(7-methoxy-1-phenyl-3,4-dihydroisoquinolin-2(1H)-ylsulfonyl)benzoic acid], the IC50 at hT2R14 [1] (Table C, read-out: hT2R14 IC50) was 2.88 µM.
With `N#C/C(=C\c1ccco1)C(=O)Nc1nnc(-c2ccccc2)s1` [Example 6-2, (E)-2-cyano-3-(furan-2-yl)-N-(5-phenyl-1,3,4-thiadiazol-2-yl)acrylamide], the IC50 at hT2R14 [1] (read-out: IC50 on hT2R14 bitter receptor) turned out to be 0.499 µM. In addition, the inhibition at 25 µM on hT2R14 [2] is over 80%; at hT2R61 (receptor activated to EC80 with agonist, read-out: inhibition of bitter receptor 61), 40 to 60%; at hT2R64 (receptor activated to EC80 with agonist, read-out: inhibition of bitter receptor 64), 20 to 40%. Moreover, the “inhibition of bitter receptor 63” value in the assay with hT2R63 (receptor activated to EC80 with agonist) was “+ (20% to 40% inhibition = +)”.
As to `Cc1cccc(C)c1NS(=O)(=O)c1ccc2c(c1)c(=O)n(C)c(=O)n2C` [Example 6-8, N-(2,6-dimethylphenyl)-1,3-dimethyl-2,4-dioxo-1,2,3,4-tetrahydroquinazoline-6-sulfonamide], on hT2R14 [2], the inhibition at 25 µM fell in the range of 20 to 40%.
Take `COc1cc(OC)c(/C=C2\SC(=S)N(CCC(=O)O)C2=O)c(OC)c1` [Example 6-12, (Z)-3-(4-oxo-2-thioxo-5-(2,4,6-trimethoxybenzylidene)thiazolidin-3-yl)propanoic acid]: the IC50 at hT2R14 [1] (Table D, read-out: hT2R14 IC50) was 9.37 µM.
On the same count and under the same terms, to `COc1cc(/C=C2\SC(=S)N(CCC(=O)O)C2=O)cc(OC)c1` [Example 6-13, (Z)-3-(5-(3,5-dimethoxybenzylidene)-4-oxo-2-thioxothiazolidin-3-yl)propanoic acid] belongs 5.38 µM; to `N#C/C(=C\c1ccc2c(c1)OCO2)C(=O)Nc1nnc(-c2ccccc2)s1` [Example 6-14, (E)-3-(benzo[d][1,3]dioxol-5-yl)-2-cyano-N-(5-phenyl-1,3,4-thiadiazol-2-yl)acrylamide], 2.91 µM; to `CC(=O)CSc1nc(C2CCCC2)nc2c1c(=O)n(C)c(=O)n2C` [Example 6-15, 7-cyclopentyl-1,3-dimethyl-5-(2-oxopropylthio)pyrimido[4,5-d]pyrimidine-2,4(1H,3H)-dione], 5.43 µM.
On the same count and under the same terms, to `Cn1c(=O)c2cc(S(=O)(=O)NC3CCCCC3)ccc2n(C)c1=O` [Example 6-16, N-cyclohexyl-1,3-dimethyl-2,4-dioxo-1,2,3,4-tetrahydroquinazoline-6-sulfonamide] belongs 7.24 µM.
For the compound `Cc1cc(C)c(C#N)c(NS(=O)(=O)c2ccc3c(c2)c(=O)n(C)c(=O)n3C)c1` [Example 6-17, N-(2-cyano-3,5-dimethylphenyl)-1,3-dimethyl-2,4-dioxo-1,2,3,4-tetrahydroquinazoline-6-sulfonamide], at hT2R14 [1] (Table D, read-out: hT2R14 IC50), the IC50 came to 1.95 µM.
Still for that read-out and setting: for `Cc1c(F)cccc1NS(=O)(=O)c1ccc2c(c1)c(=O)n(C)c(=O)n2C` [Example 6-18, N-(3-fluoro-2-methylphenyl)-1,3-dimethyl-2,4-dioxo-1,2,3,4-tetrahydroquinazoline-6-sulfonamide] the value was 0.935 µM.
For `Cc1nc2ccc(NS(=O)(=O)c3ccc4c(c3)n(C)c(=O)c(=O)n4C)cc2nc1C` [Example 6-19, N-(2,3-dimethylquinoxalin-6-yl)-1,4-dimethyl-2,3-dioxo-1,2,3,4-tetrahydroquinoxaline-6-sulfonamide], the IC50 on hT2R14 [1] (Table D, read-out: hT2R14 IC50) amounted to 6.33 µM.
For `CCN(C)C(=O)CSc1nc(C)nc2c1c(=O)n(C)c(=O)n2C` [Example 6-22, N-ethyl-N-methyl-2-(2,6,8-trimethyl-5,7-dioxo-5,6,7,8-tetrahydropyrimido[4,5-d]pyrimidin-4-ylthio)acetamide], on hT2R14 [1] (Table D, read-out: hT2R14 IC50), the IC50 stood at 0.861 µM.
Same read-out and setting: for `Cn1c(=O)c2cc(S(=O)(=O)Nc3ccc(Cl)cc3F)ccc2n(C)c1=O` [Example 6-23, N-(4-chloro-2-fluorophenyl)-1,3-dimethyl-2,4-dioxo-1,2,3,4-tetrahydroquinazoline-6-sulfonamide] the value was 9.7 µM; for `Cc1nc(SCC(=O)N2CCCCC2)c2c(=O)n(C)c(=O)n(C)c2n1` [Example 6-24, 1,3,7-trimethyl-5-(2-oxo-2-(piperidin-1-yl)ethylthio)pyrimido[4,5-d]pyrimidine-2,4(1H,3H)-dione], 0.292 µM.
The same measure, in the same setting: to `Cc1nc(SCC(=O)N2CCOCC2)c2c(=O)n(C)c(=O)n(C)c2n1` [Example 6-25, 1,3,7-trimethyl-5-(2-morpholino-2-oxoethylthio)pyrimido[4,5-d]pyrimidine-2,4(1H,3H)-dione] belongs 1.01 µM; to `CCc1nc(SCC(=O)N2CCC(C)CC2)c2c(=O)n(C)c(=O)n(C)c2n1` [Example 6-26, 7-ethyl-1,3-dimethyl-5-(2-(4-methylpiperidin-1-yl)-2-oxoethylthio)pyrimido[4,5-d]pyrimidine-2,4(1H,3H)-dione], 0.721 µM.
`CCOC(=O)N1CCN(C(=O)CSc2nc(CC)nc3c2c(=O)n(C)c(=O)n3C)CC1` [Example 6-27, ethyl 4-(2-(2-ethyl-6,8-dimethyl-5,7-dioxo-5,6,7,8-tetrahydropyrimido[4,5-d]pyrimidin-4-ylthio)acetyl)piperazine-1-carboxylate]: the half-inhibitory concentration (IC50) at hT2R14 [1] (Table D, read-out: hT2R14 IC50) amounted to 0.763 µM.
On the same count and under the same terms, to `Cn1c(=O)c2c(SCC(=O)N3CCCCCC3)ccnc2n(C)c1=O` [Example 6-28, 5-(2-(azepan-1-yl)-2-oxoethylthio)-1,3-dimethylpyrido[2,3-d]pyrimidine-2,4(1H,3H)-dione] belongs 2.38 µM; to `Cn1c(=O)c2c(SCC(=O)NCc3ccccc3)ccnc2n(C)c1=O` [Example 6-29, N-benzyl-2-(1,3-dimethyl-2,4-dioxo-1,2,3,4-tetrahydropyrido[2,3-d]pyrimidin-5-ylthio)acetamide], 0.71 µM.
For `CNS(=O)(=O)c1ccc2[nH]c(=O)c(=O)[nH]c2c1` [Example 6-30, N-methyl-2,3-dioxo-1,2,3,4-tetrahydroquinoxaline-6-sulfonamide], the IC50 at hT2R14 [1] (Table D, read-out: hT2R14 IC50) stood at 6.23 µM.

(Values after US9247759B2, “Identification of human T2R receptors that respond to bitter compounds that elicit the bitter taste in compositions, and the use thereof in assays to identify compounds that inhibit (block) bitter taste in compositions and use thereof” (SENOMYX, INC., priority 2007, dated 2016).)
